Measured values: patent US20230365647A1 (priority 2020, published 2023)
Read-outs that look alike come from different tables or passages of the source. Where no end group is shown, it is not given here.

Tests used:
PLY [1] = target: T1, PLY (Streptococcus pneumoniae serotype 4, UniProt P0C2J9); format: binding
PLY [2] = target: T1, PLY; settings: for inhibition of PLY-induced hemolysis: human
LLO [3] = target: T2, LLO (Listeria monocytogenes serotype 4a, UniProt B8DGM3); settings: for inhibition of LLO-induced hemolysis: human
[4] = mouse, in vivo
PLY [5] = target: T1, PLY; format: cell-based
PLY [6] = target: T1, PLY; format: cell-based; remark: listed apart in the source
LLO [7] = target: T2, LLO; format: cell-based
[8] = test system: pneumococcal strain T4 (TIGR4 of serotype 4); format: binding
S. pneumoniae T4 [9] = format: cell-based, Streptococcus pneumoniae
PLY [10] = target: T1, PLY; format: cell-based; remark: listed apart in the source
PLY [11] = target: T1, PLY; format: cell-based; remark: listed apart in the source
[12] = test system: wild-type pneumococci T4 (TIGR4); format: cell-based
[13] = test system: pneumococci, type 2 (D39) or type 4 (T4); format: cell-based, Streptococcus pneumoniae
[14] = test system: pneumococci of type 4 or type 2; format: cell-based, Streptococcus pneumoniae
S. pneumoniae T4R = format: cell-based
S. pneumoniae T4 [15] = test system: S. pneumoniae T4; parameters: species or system zebrafish (Danio renio); settings: in vivo
LLO [16] = target: T2, LLO; format: binding
[17] = test system: human THP-1 derived macrophages; format: cell-based

With DCTSAGRSDGWLW [CP1] the “binding to PLY (ELISA)” value (PLY [1]) was “only background levels of binding”, the “PLY-induced hemolysis, residual red blood cell pellet” value (PLY [2]) was “Complete hemolysis” and the “LLO-induced hemolysis, residual red blood cell pellet” value (LLO [3]) was “Complete hemolysis”.

With FTWSDGSPVSYEN [P2, FTWSDGSPVSYEN] the “inhibition of PLY-induced hemolysis” value (PLY [2]) was “up to 50%”, the “inhibition of LLO-induced hemolysis” value (LLO [3]) was ~35% and the clinical symptoms [4] was “did not develop any clinical symptoms”. For the same sequence, the “toxicity by lung histology analysis” value [4] was “not toxic”.

In the case of LVGNIEQNEHSVI [CP2], the “binding to PLY (ELISA)” value (PLY [1]) is reported as “only background levels of binding”, the “protection of THP-1 macrophages from PLY cytolysis (live/dead stain)” value (PLY [5]) is reported as “not” and the “cell death of macrophages induced by PLY (LDH release)” value (PLY [6]) is reported as “no significant effect”. The “cell death of macrophages induced by LLO (LDH release)” value (LLO [7]) was “no significant effect”, the “binding of FITC-labelled peptide to PLY-producing strain T4” value [8] was “did not show any binding” and the “hemolytic activity of pneumococcal strain T4” value (S. pneumoniae T4 [9]) was “no effect”. For the same sequence, the “LDH release into the supernatant of lung tissue model” value (PLY [10]) was “did not show any significant reduction”, the “release of IL-8 in lung tissue model” value (PLY [11]) was “not” and the “release of TNF-α in lung tissue model” value (PLY [11]) was “not”. For the same sequence, the “number of invading bacteria in lung epithelial model (CFU)” value [12] was “not”, the “number of intracellular bacteria in DCs (CFU)” value [13] was “did not show any significant difference” and the “intracellular bacteria in DCs (fluorescence microscopy)” value [14] was “not”. For the same sequence, the “co-localization of intracellular T4R with autophagy marker LC3B” value (S. pneumoniae T4R) was “did not promote co-localization”, the “survival of infected zebrafish embryos” value (S. pneumoniae T4 [15]) was “did not show any significant effect” and the “PLY-induced hemolysis, residual red blood cell pellet” value (PLY [2]) was “Complete hemolysis”. For the same sequence, the “LLO-induced hemolysis, residual red blood cell pellet” value (LLO [3]) was “Complete hemolysis”.

In the case of YENWAYGEPNNYQ [P3, YENWAYGEPNNYQ], the “binding to PLY (ELISA)” value (PLY [1]) is reported as “bind dose-dependently”, the “binding to LLO (ELISA)” value (LLO [16]) is reported as “bound dose-dependently” and the “cell death of macrophages induced by PLY (LDH release)” value (PLY [6]; 18 h) is reported as “significantly reduced cell death”. For the same sequence, the “cell death of macrophages induced by LLO (LDH release)” value (LLO [7]; 18 h) was “significantly reduced cell death”, the “release of IL-8” value [17] was “significantly reduced” and the “release of IL-12” value [17] was “significantly reduced”. The “release of TNF-α” value [17] was “significantly reduced”, the “PLY-induced hemolysis, increasing concentrations of the peptides” value (PLY [2]) was “dose-dependently inhibited” and the “inhibition of PLY-induced hemolysis” value (PLY [2]) was “up to 50%”. For the same sequence, the “inhibition of LLO-induced hemolysis” value (LLO [3]) was ~35%.
